Measurements published in patent US9108936B2, “Substituted 4-aminobenzamides as KCNQ2/3 modulators” (GRUENENTHAL GMBH, priority 2012, dated 2015).

Target: T1, KCNQ2/3 channels (Homo sapiens, UniProt O43525+O43526)
T1 construct: expressed in transfected cells; host or cells: CHO-K1
Assay: Fluorescence assay using a voltage sensitive dye (fluorimetry)
Format: cell-based
Conditions: CHO-K1 cells expressing KCNQ2/3; for Emax: plateau effect relative to saturated Retigabine (50 μM), read-out: Fluorimetry % efficacy (retigabine = 100%); for EC50: voltage-sensitive dye, KCl depolarization, read-out: Fluorimetry EC50/IC50
Text: Method I. Fluorescence Assay Using a Voltage Sensitive Dye (Fluorimetry)
The modulation of the KCNQ opening state (and consequently the voltage potential of a cell) by test compounds such as compounds according to the present invention results in an increased or reduced amount of a voltage-sensitive dye in the cytoplasm of the cells tested. These voltage-sensitive dyes are fluorescent dyes and, therefore, are forming the link between cell potential influenced by KCNQ modulation and fluorescence intensity. A KCNQ agonist leads to an opening of the channel, potassium and dye efflux, a following hyperpolarization and a reduction of the inner fluorescence intensity in a kinetic protocol. If applying an ion jump by KCl depolarization, KCNQ agonists increase the ΔF/F value. An antagonist performs vice versa, respectively.
The ‘fluorimetry EC50’ is the half maximum effective concentration (EC50), where the concentration of a drug/compound induces a response halfway between the baseline and maximum plateau effect. In other words, said value represents the concentration of a compound, where 50% of its maximal effect in the fluorimetric assay is observed if the substance concentration is graphed against the corresponding ΔF/F values (for which the calculation method is described below). Therefore, ‘fluorimetry EC50’ is a measure for the compound potency. The compound efficacy is mirrored by ‘fluorimetry % efficacy’ (‘% Efficacy’) and refers to the maximum response achievable by the test compound, i.e. the plateau effect. This drug's plateau effect is related to the plateau effect, which can be achieved by applying a saturated concentration of a reference compound, e.g. Retigabine (50 μM), in independent wells of the same experimental plate or series. A compound showing 100% efficacy is as efficacious as the reference compound (Retigabine) with a saturated concentration.
[…] CHO-K1 cells expressing KCNQ2/3 channels are cultivated adherently at 37° C., 5% CO2 and 95% humidity in cell culture bottles (e.g. 80 cm^2 TC flasks, Nunc) with DMEM-high glucose (Sigma Aldrich, D7777) including 10% FCS (PAN Biotech, e.g. 3302-P270521) or alternatively MEM Alpha Medium (1×, liquid, Invitrogen, #22571), 10% fetal calf serum (FCS) (Invitrogen, #10270-106, heat-inactivated) and the necessary selection antibiotics.
Before being sown out for the measurements, the cells are washed with 1× DPBS buffer Ca^2+/Mg^2+-free (e.g. Invitrogen, #14190-094) and detached from the bottom of the culture vessel by using Accutase (PAA Laboratories, #L11-007) (incubation with Accutase for 15 min at 37° C.). The cell number is determined using a CASY™ cell counter (TCC, Schärfe System). Depending on the optimal density for each individual cell line, 20,000-30,000 cells/well/100 μl are seeded onto 96-well Corning™ CellBIND™ assay plates (Flat Clear Bottom Black Polystyrene Microplates, #3340). Freshly seeded cells are then left to settle for one hour at room temperature, followed by incubation for 24 hours at 37° C., 5% CO2 and 95% humidity.
The voltage-sensitive fluorescent dye from the Membrane Potential Assay Kit (Red™ Bulk format part R8123 for FLIPR, MDS Analytical Technologies™) is prepared by dissolving the contents of one vessel Membrane Potential Assay Kit Red Component A in 200 ml of extracellular buffer (ES buffer, 120 mM NaCl, 1 mM KCl, 10 mM HEPES, 2 mM CaCl2, 2 mM MgCl2, 10 mM glucose; pH 7.4). After removal of the nutrient medium, the cells are washed once with 200 μl of ES buffer, then loaded for 45 min at room temperature in 100 μl of dye solution in the dark.
Fluorescence measurements are carried out in a BMG Labtech FLUOstar™, BMG Labtech NOVOstar™ or BMG Labtech POLARstar™ instrument (525 nm excitation, 560 nm emission, Bottom Read mode). […]

Row | Emax [%] | EC50 [nM] | Structure (SMILES)
1 | 156 | 3610 | Cc1cc(N2CCOCC2)cc(C(C)C)c1C(=O)NCc1ccc(Cl)cn1 [Example 34, N-[(5-Chloro-pyridin-2-yl)-methyl]-2-isopropyl-6-methyl-4-morpholin-4-yl-benzamide]
2 | 181 | 506 | CCc1cc(N2CCOCC2)cc(CC)c1C(=O)NCc1ccc(Cl)cc1 [Example 41, N-[(4-Chlorophenyl)-methyl]-2,6-diethyl-4-morpholin-4-yl-benzamide]
3 | 167 | 748 | Cc1cc(N2CCOCC2)cc(N2CC[C@@H](F)C2)c1C(=O)NCc1ccc(Cl)cc1 [Example 38, N-[(4-Chlorophenyl)-methyl]-2-[(3R)-3-fluoro-pyrrolidin-1-yl]-6-methyl-4-morpholin-4-yl-benzamide]
4 | 216 | 1370 | Cc1cc(N2CCOCC2)cc(C(C)C)c1C(=O)NCC(O)CC(C)(C)C (centres unmarked) [Example 33, N-(2-Hydroxy-4,4-dimethyl-pentyl)-2-isopropyl-6-methyl-4-morpholin-4-yl-benzamide]
5 | 156 | 453 | Cc1cc(N2CCCC2)cc(C(F)(F)F)c1C(=O)NCc1cccc(F)c1 [Example 26, N-[(3-Fluorophenyl)-methyl]-2-methyl-4-pyrrolidin-1-yl-6-(trifluoromethyl)-benzamide]
6 | 196 | 217 | CC(C)c1cc(N2CCOCC2)cc(F)c1C(=O)NCc1ccc(Cl)cc1 [Example 39, N-[(4-Chlorophenyl)-methyl]-2-fluoro-6-isopropyl-4-morpholin-4-yl-benzamide]
7 | 118 | 626 | C=C(C)c1cc(N2CCOCC2)cc(C)c1C(=O)NCc1ccc(C(F)(F)F)cc1 [Example 21, 2-Isopropenyl-6-methyl-4-morpholin-4-yl-N-[[4-(trifluoromethyl)-phenyl]-methyl]-benzamide]
8 | 134 | 3070 | Cc1cc(N2CCOCC2)cc(C(C)C)c1C(=O)NCc1ccc(C(F)(F)F)cn1 [Example 35, 2-Isopropyl-6-methyl-4-morpholin-4-yl-N-[[5-(trifluoromethyl)-pyridin-2-yl]-methyl]-benzamide]
9 | 185 | 400 | Cc1cc(N2CCOCC2)cc(C(F)(F)F)c1C(=O)NCc1ccc(Cl)cc1 [Example 19, N-[(4-Chlorophenyl)-methyl]-2-methyl-4-morpholin-4-yl-6-(trifluoromethyl)-benzamide]
10 | 161 | 139 | Cc1cc(N2CCOCC2)cc(C(C)C)c1C(=O)NCc1ccc(OC(F)(F)F)cc1 [Example 23, 2-Isopropyl-6-methyl-4-morpholin-4-yl-N-[[4-(trifluoromethyloxy)-phenyl]-methyl]-benzamide]
11 | 195 | 1810 | Cc1cc(N2CCOCC2)cc(C2CC2)c1C(=O)NCC[C@H](O)C(C)(C)C [Example 29, 2-Cyclopropyl-N-[(3S)-3-hydroxy-4,4-dimethyl-pentyl]-6-methyl-4-morpholin-4-yl-benzamide]
12 | 159 | 3810 | Cc1cc(N2CCOCC2)cc(C2CC2)c1C(=O)NCC(O)CC(C)(C)C (centres unmarked) [Example 32, 2-Cyclopropyl-N-(2-hydroxy-4,4-dimethyl-pentyl)-6-methyl-4-morpholin-4-yl-benzamide]
13 | 89 | 5260 | Cc1cc(N2CCOCC2)cc(C2CC2)c1C(=O)NCc1ccc(C(F)(F)F)cn1 [Example 36, 2-Cyclopropyl-6-methyl-4-morpholin-4-yl-N-[[5-(trifluoromethyl)-pyridin-2-yl]-methyl]-benzamide]
14 | 144 | 355 | Cc1cc(N2CCOCC2)cc(C2CC2)c1C(=O)NCc1ccc(OC(F)(F)F)cc1 [Example 25, 2-Cyclopropyl-6-methyl-4-morpholin-4-yl-N-[[4-(trifluoromethyloxy)-phenyl]-methyl]-benzamide]
15 | 134 | 693 | Cc1cc(N2CCOCC2)cc(C2CC2)c1C(=O)NCc1ccc(C(F)(F)F)cc1 [Example 24, 2-Cyclopropyl-6-methyl-4-morpholin-4-yl-N-[[4-(trifluoromethyl)-phenyl]-methyl]-benzamide]
16 | 155 | 4660 | Cc1cc(N2CCOCC2)cc(C2CC2)c1C(=O)NCC[C@@H](O)C(C)(C)C [Example 28, 2-Cyclopropyl-N-[(3R)-3-hydroxy-4,4-dimethyl-pentyl]-6-methyl-4-morpholin-4-yl-benzamide]
17 | 197 | 673 | Cc1cc(N2CCCCC2)cc(C(F)(F)F)c1C(=O)NCc1cccc(F)c1 [Example 27, N-[(3-Fluorophenyl)-methyl]-2-methyl-4-piperidin-1-yl-6-(trifluoromethyl)-benzamide]

Second part, the compound before the results:

Row | Structure (SMILES) | Emax [%] | EC50 [nM]
18 | CCSc1cc(N2CCOCC2)cc(C)c1C(=O)NCc1ccc(Cl)cc1 [Example 2, N-[(4-Chlorophenyl)-methyl]-2-ethylsulfanyl-6-methyl-4-morpholin-4-yl-benzamide] | 152 | 483
19 | CCOc1cc(N2CCOCC2)cc(C)c1C(=O)NCc1ccc(Cl)cc1 [Example 11, N-[(4-Chlorophenyl)-methyl]-2-ethoxy-6-methyl-4-morpholin-4-yl-benzamide] | 141 | 1350
20 | CCSc1cc(N2CCOC[C@H]2C)cc(C)c1C(=O)NCCCC(C)(C)C [Example 5, N-(4,4-Dimethyl-pentyl)-2-ethylsulfanyl-6-methyl-4-[(3R)-3-methyl-morpholin-4-yl]-benzamide] | 246 | 108
21 | CCCc1cc(N2CCOCC2)cc(C)c1C(=O)NCc1ccc(Cl)cc1 [Example 13, N-[(4-Chlorophenyl)-methyl]-2-methyl-4-morpholin-4-yl-6-propyl-benzamide] | 183 | 217
22 | CCS(=O)(=O)c1cc(N2CCOCC2)cc(C)c1C(=O)NCCCC(C)(C)C [Example 9, N-(4,4-Dimethyl-pentyl)-2-(ethylsulfonyl)-6-methyl-4-morpholin-4-yl-benzamide] | 65 | 9300
23 | CCSc1cc(N2CCOC[C@H]2C)cc(C)c1C(=O)NCc1ccc(Cl)cc1 [Example 4, N-[(4-Chlorophenyl)-methyl]-2-ethylsulfanyl-6-methyl-4-[(3R)-3-methyl-morpholin-4-yl]-benzamide] | 200 | 260
24 | CCc1cc(N2CCOCC2)cc(C)c1C(=O)NCc1ccc(Cl)cc1 [Example 12, N-[(4-Chlorophenyl)-methyl]-2-ethyl-6-methyl-4-morpholin-4-yl-benzamide] | 169 | 369
25 | Cc1cc(N2CCOCC2)cc(C2CC2)c1C(=O)NCc1ccc(F)cc1 [Example 18, 2-Cyclopropyl-N-[(4-fluorophenyl)-methyl]-6-methyl-4-morpholin-4-yl-benzamide] | 169 | 982
26 | CC[S+]([O-])c1cc(N2CCOCC2)cc(C)c1C(=O)NCCCC(C)(C)C (centres unmarked) [Example 7, N-(4,4-Dimethyl-pentyl)-2-(ethylsulfinyl)-6-methyl-4-morpholin-4-yl-benzamide] | 66 | 8800
27 | Cc1cc(N2CCOCC2)cc(C2CC2)c1C(=O)NCc1ccc(Cl)cc1 [Example 15, N-[(4-Chlorophenyl)-methyl]-2-cyclopropyl-6-methyl-4-morpholin-4-yl-benzamide] | 170 | 552
28 | CCSc1cc(N2CCOCC2)cc(C)c1C(=O)NCc1cccc(F)c1 [Example 1, 2-Ethylsulfanyl-N-[(3-fluorophenyl)-methyl]-6-methyl-4-morpholin-4-yl-benzamide] | 163 | 1480
